Test results reported in patent US20250268248A1 (priority 2022, published 2025).

How the values were obtained:
S. aureus [1] = assay: MIC determination by serial dilution in LB broth; type: cell-based, S. aureus (ATCC 25923); settings: Staphylococcus aureus, Table 5, 24 h, 37° C.
Excerpt: (§1) • Menthol, Guangdong Huaqingyuan Biotechnology Co., Ltd. • Thymol, Guangdong Huaqingyuan Biotechnology Co., Ltd. • Bromoisobutyryl bromide (BiBB), Aldrich • CuBr, Aldrich • N,N,N′,N″,N″-pentamethyldiethylenetriamine (PMDETA), Aldrich • 2-(N,N-dimethylamino)ethyl methacrylate (DMAEMA), Aldrich • Gram-positive 2 bacteria (S. aureus, ATCC 25923), China Center of Industrial Culture, commercially available from Guangdong Huankai Microbial Sci.&Tech. Co., Ltd., Guangdong, China • methicillin-resistant Staphylococcus aureus (ATCC 43300), China Center of Industrial Culture, commercially available from Guangdong Huankai Microbial Sci.&Tech. Co., Ltd., Guangdong, China • Gram-negative bacteria (E. coli, ATCC 43894), China Center of Industrial Culture, commercially available from Guangdong Huankai Microbial Sci.&Tech. Co., Ltd., Guangdong, China.
(§2) MIC (minimum inhibitory concentration) was used as an effective qualitative method of antibacterial ability assessment. MIC of antibacterial polymers were determined against S. aureus and E. coli by a serial dilution method. Bacteria LB agar plates were prepared from glycerol stock. Bacteria were inoculated with LB broth in an inoculation shaker at 200 rpm and 37° C., overnight.

S. aureus [2] = assay: MBC determination; type: cell-based, S. aureus (ATCC 25923); settings: Staphylococcus aureus; Table 5
Excerpt: as §1
(§3) The MBC was defined as the lowest concentration of an antibacterial agent that kills bacteria in the planktonic culture. MBC of antibacterial polymers and control were determined against S. aureus and E. coli by the reported method in publication “Antibacterial and Bacterially Antiadhesive Cotton Fabrics Coated by Cationic Fluorinated Polymers. ACS Appl Mater Interfaces 2018, 10 (7), 6124-6136.”

MRSA [3] = assay: MIC determination by serial dilution in LB broth; type: cell-based, methicillin-resistant Staphylococcus aureus (ATCC 43300); settings: Staphylococcus aureus, read-out: MIC MRSA
Excerpt: as §1
as §2, with “overnight. […] MIC was determined with no visible growth at 600 nm by spectrophotometer. […]” for “overnight.”

E. coli [4] = assay: MBC determination; type: cell-based, E. coli (ATCC 43894); settings: Escherichia coli, read-out: MBC E. coli
Excerpt: as §1, §3

MRSA [5] = assay: MBC determination; type: cell-based, methicillin-resistant Staphylococcus aureus (ATCC 43300); settings: Staphylococcus aureus, read-out: MBC MRSA
Excerpt: as §1, §3

E. coli [6] = assay: microbe, parasite or virus in culture; type: cell-based, E. coli (ATCC 43894); settings: Escherichia coli, 24 h, read-out: MIC E. coli
Excerpt: as §1, §2

Cc1ccc(C(C)C)c(O)c1 [Thymol]
250 µg/mL: MIC (S. aureus [1]) | MBC (S. aureus [2]) | MIC (MRSA [3]) | MBC (E. coli [4]) | MBC (MRSA [5]) | MIC (E. coli [6])
